In ChEMBL document CHEMBL4000234, “Synthesis and antiviral evaluation of novel heteroarylpyrimidines analogs as HBV capsid effectors” (Bioorg Med Chem Lett, 2017):

Key:
HepG2 = assay: (§1) Cytotoxicity against human HepG2 cells assessed as growth inhibition by CellTiter 96 non-radioactive cell proliferation colorimetric assay; assay type: cell-based; conditions: hepg2
Hepatitis B virus = assay: Antiviral activity against HBV infected in human HepAD38 cells assessed as inhibition of DNA replication after 5 days by RT-PCR method; assay type: functional, cell-based; conditions: HePAD38, 120 h
Vero = assay: (§2) Cytotoxicity against African green monkey Vero cells assessed as growth inhibition by CellTiter 96 non-radioactive cell proliferation colorimetric assay; assay type: cell-based; conditions: chlorocebus sabaeus, vero
PBMC = assay: (§3) Cytotoxicity against human PBMC assessed as growth inhibition by CellTiter 96 non-radioactive cell proliferation colorimetric assay; assay type: cell-based
CCRF-CEM = assay: (§4) Cytotoxicity against human CEM cells assessed as growth inhibition by CellTiter 96 non-radioactive cell proliferation colorimetric assay; assay type: cell-based; conditions: ccrf-cem
[1] = as §1; assay type: cell-based; conditions: HepG2 cells
[2] = as §2; assay type: cell-based; conditions: chlorocebus sabaeus, Vero cells
[3] = as §3; assay type: cell-based
[4] = as §4; assay type: cell-based, CCRF-CEM; conditions: CEM cells (CCRF-CEM)

CC1(C)CC(=O)c2c(Cc3ccc(F)cc3Cl)nc(-c3ccncc3)nc2C1
CC50 (HepG2): ≥ 100 µM | EC50 (Hepatitis B virus): > 10 µM | CC50 (Vero): 10 µM | CC50 (PBMC): > 100 µM | CC50 (CCRF-CEM): ≥ 100 µM

Nc1ccn([C@@H]2CS[C@H](CO)O2)c(=O)n1 [LAMIVUDINE]
CC50 [1]: 10 to 100 µM | EC50 (Hepatitis B virus): 0.04 µM | CC50 [2]: > 100 µM | CC50 [3]: > 100 µM | CC50 [4]: > 100 µM

CC1=C(C(=O)NS(=O)(=O)N(C)C)C(c2ccc(F)cc2Cl)N=C(c2ccccn2)N1 (stereo unspecified)
CC50 (HepG2): > 100 µM | EC50 (Hepatitis B virus): > 10 µM | CC50 (Vero): ≥ 100 µM | CC50 (PBMC): > 100 µM | CC50 (CCRF-CEM): > 100 µM

COC(=O)c1c(Cc2ccc(F)cc2Cl)nc(-c2ccccn2)nc1CN1CCOCC1
CC50 (HepG2): 69 µM | EC50 (Hepatitis B virus): > 10 µM | CC50 (Vero): 71 µM | CC50 (PBMC): 34 µM | CC50 (CCRF-CEM): 11 µM

CCOC(=O)C1=C(CN2CCOCC2)NC(c2nccs2)=NC1c1ccc(F)cc1Br (racemic)
EC50 (Hepatitis B virus): 0.3 µM

COC(=O)c1c(Cc2ccccc2)nc(-c2ccccn2)nc1CN1CCOCC1
CC50 (HepG2): > 100 µM | EC50 (Hepatitis B virus): > 10 µM | CC50 (Vero): 59 µM | CC50 (PBMC): 81 µM | CC50 (CCRF-CEM): 2 µM

COC(=O)C1=C(CS(=O)(=O)Cc2ccc(C)cc2)NC(c2ccccn2)=NC1c1ccc(F)cc1Cl (stereo unspecified)
CC50 (HepG2): > 100 µM | EC50 (Hepatitis B virus): > 10 µM | CC50 (Vero): ≥ 100 µM | CC50 (PBMC): 67 µM | CC50 (CCRF-CEM): 47 µM

COC(=O)C1=C(CN=[N+]=[N-])NC(c2ccccn2)=NC1c1ccc(F)cc1Cl (stereo unspecified)
CC50 (HepG2): > 100 µM | EC50 (Hepatitis B virus): 5.3 µM | CC50 (Vero): 56 µM | CC50 (PBMC): > 100 µM | CC50 (CCRF-CEM): > 100 µM

CCOP(=O)(CC1=C(C(=O)OC)C(c2ccc(F)cc2Cl)N=C(c2ccccn2)N1)OCC (stereo unspecified)
CC50 (HepG2): > 100 µM | EC50 (Hepatitis B virus): > 10 µM | CC50 (Vero): 43 µM | CC50 (PBMC): 65 µM | CC50 (CCRF-CEM): 15 µM

CCS(=O)(=O)CC1=C(C(=O)OC)C(c2ccc(F)cc2Cl)N=C(c2ccccn2)N1 (stereo unspecified)
CC50 (HepG2): > 100 µM | EC50 (Hepatitis B virus): > 10 µM | CC50 (Vero): > 100 µM | CC50 (PBMC): > 100 µM | CC50 (CCRF-CEM): 39 µM

CC1(C)CC(=O)C2=C(C1)NC(c1cccnc1)=NC2c1ccc(F)cc1Cl (racemic)
CC50 (HepG2): > 100 µM | EC50 (Hepatitis B virus): > 10 µM | CC50 (Vero): > 100 µM | CC50 (PBMC): > 100 µM | CC50 (CCRF-CEM): > 100 µM

CC1=C(Cl)C(c2ccc(F)cc2Cl)N=C(c2ccccn2)N1 (stereo unspecified)
CC50 (HepG2): 98 µM | EC50 (Hepatitis B virus): > 10 µM | CC50 (Vero): 13 µM | CC50 (PBMC): > 100 µM | CC50 (CCRF-CEM): 44 µM

CC(=O)NC1=C(CN2CCOCC2)NC(c2ccccn2)=NC1c1ccc(F)cc1Cl (stereo unspecified)
CC50 (HepG2): > 100 µM | EC50 (Hepatitis B virus): > 10 µM | CC50 (Vero): 18 µM | CC50 (PBMC): 28 µM | CC50 (CCRF-CEM): 69 µM

CC1=C(C(=O)OCC(F)(F)F)C(c2ccc(F)cc2Cl)N=C(c2ccccn2)N1 (stereo unspecified)
CC50 (HepG2): > 100 µM | EC50 (Hepatitis B virus): > 10 µM | CC50 (Vero): 65 µM | CC50 (PBMC): > 100 µM | CC50 (CCRF-CEM): 4 µM

Fc1ccc(C2N=C(c3nccs3)NC(CN3CCOCC3)=C2I)c(Br)c1 (stereo unspecified)
CC50 (HepG2): > 100 µM | EC50 (Hepatitis B virus): 5.7 µM | CC50 (Vero): > 100 µM | CC50 (PBMC): 75 µM | CC50 (CCRF-CEM): 33 µM

COC(=O)c1c(CSc2ccccc2)nc(-c2ccccn2)nc1Cc1ccccc1
CC50 (HepG2): > 100 µM | EC50 (Hepatitis B virus): > 10 µM | CC50 (Vero): 12 µM | CC50 (PBMC): 65 µM | CC50 (CCRF-CEM): 9 µM

CC1=C(C(=O)SC(C)C)C(c2ccc(F)cc2Cl)N=C(c2ccccn2)N1 (stereo unspecified)
CC50 (HepG2): > 100 µM | EC50 (Hepatitis B virus): > 10 µM | CC50 (Vero): 40 µM | CC50 (PBMC): 31 µM | CC50 (CCRF-CEM): 13 µM

COC(=O)C1=C(CSc2ccccc2)NC(c2ccccn2)=NC1Cc1ccccc1 (stereo unspecified)
CC50 (HepG2): 96 µM | EC50 (Hepatitis B virus): > 10 µM | CC50 (Vero): > 100 µM | CC50 (PBMC): > 100 µM | CC50 (CCRF-CEM): 5 µM

CC1(C)CC(=O)c2c(Cc3ccc(F)cc3Cl)nc(-c3ccccn3)nc2C1
CC50 (HepG2): 42 µM | EC50 (Hepatitis B virus): > 10 µM | CC50 (Vero): 29 µM | CC50 (PBMC): 69 µM | CC50 (CCRF-CEM): 9 µM

COC(=O)C1=C(CN2CCN(C)CC2)NC(c2ccccn2)=NC1Cc1ccccc1 (stereo unspecified)
CC50 (HepG2): 14 µM | EC50 (Hepatitis B virus): > 10 µM | CC50 (Vero): 76 µM | CC50 (PBMC): > 100 µM | CC50 (CCRF-CEM): 17 µM

COC(=O)c1c(C)nc(-c2ccccn2)nc1Cc1ccccc1
CC50 (HepG2): 41 µM | EC50 (Hepatitis B virus): > 10 µM | CC50 (Vero): 61 µM | CC50 (PBMC): 67 µM | CC50 (CCRF-CEM): 4 µM

CC1=C(I)C(c2ccc(F)cc2Br)N=C(c2nccs2)N1 (stereo unspecified)
CC50 (HepG2): > 100 µM | EC50 (Hepatitis B virus): 7.1 µM | CC50 (Vero): > 100 µM | CC50 (PBMC): 80 µM | CC50 (CCRF-CEM): 33 µM

CC1(C)CC(=O)c2c(Cc3ccccc3)nc(-c3ccccn3)nc2C1
CC50 (HepG2): 47 µM | EC50 (Hepatitis B virus): > 10 µM | CC50 (Vero): 53 µM | CC50 (PBMC): 43 µM | CC50 (CCRF-CEM): 21 µM

CC1=C(I)C(c2ccc(F)cc2Cl)N=C(c2ccccn2)N1 (stereo unspecified)
CC50 (HepG2): > 100 µM | EC50 (Hepatitis B virus): 4.1 µM | CC50 (Vero): 29 µM | CC50 (PBMC): 80 µM | CC50 (CCRF-CEM): 74 µM

CC(=O)NC1=C(C)NC(c2ccccn2)=NC1c1ccc(F)cc1Cl (stereo unspecified)
CC50 (HepG2): 80 µM | EC50 (Hepatitis B virus): > 10 µM | CC50 (Vero): > 100 µM | CC50 (PBMC): > 100 µM | CC50 (CCRF-CEM): > 100 µM

COC(=O)C1=C(C)NC(c2ccccn2)=NC1Cc1ccccc1 (stereo unspecified)
CC50 (HepG2): > 100 µM | EC50 (Hepatitis B virus): > 10 µM | CC50 (Vero): > 100 µM | CC50 (PBMC): 52 µM | CC50 (CCRF-CEM): 61 µM

COC(=O)C1=C(CN2CCOCC2)NC(c2ccccn2)=NC1c1ccc(F)cc1Cl (racemic)
CC50 (HepG2): > 100 µM | EC50 (Hepatitis B virus): 0.45 to 0.5 µM | CC50 (Vero): > 100 µM | CC50 (PBMC): > 100 µM | CC50 (CCRF-CEM): > 100 µM

Fc1ccc(C2N=C(c3ccccn3)NC(CN3CCOCC3)=C2I)c(Cl)c1 (stereo unspecified)
CC50 (HepG2): > 100 µM | EC50 (Hepatitis B virus): 4 µM | CC50 (Vero): 45 µM | CC50 (PBMC): > 100 µM | CC50 (CCRF-CEM): 11 µM

COC(=O)C1=C(Cn2cc[n+](C)c2)NC(c2ccccn2)=NC1c1ccc(F)cc1Cl (stereo unspecified)
CC50 (HepG2): > 100 µM | EC50 (Hepatitis B virus): > 10 µM | CC50 (Vero): > 100 µM | CC50 (PBMC): 44 µM | CC50 (CCRF-CEM): 23 µM

COCCOCc1nc(-c2ccccn2)nc(Cc2ccccc2)c1C(=O)OC
CC50 (HepG2): ≥ 100 µM | EC50 (Hepatitis B virus): > 10 µM | CC50 (Vero): 87 µM | CC50 (PBMC): 99 µM | CC50 (CCRF-CEM): 55 µM

CC1(C)CC(=O)c2c(Cc3ccc(F)cc3Cl)nc(-c3cccnc3)nc2C1
CC50 (HepG2): > 100 µM | EC50 (Hepatitis B virus): > 10 µM | CC50 (Vero): ≥ 100 µM | CC50 (PBMC): > 100 µM | CC50 (CCRF-CEM): 86 µM

COC(=O)c1c(Cc2ccccc2)nc(-c2ccccn2)nc1CN1CCN(C)CC1
CC50 (HepG2): > 100 µM | EC50 (Hepatitis B virus): > 10 µM | CC50 (Vero): > 100 µM | CC50 (PBMC): > 100 µM | CC50 (CCRF-CEM): 86 µM

CCCC[n+]1ccn(CC2=C(C(=O)OC)C(c3ccc(F)cc3Cl)N=C(c3ccccn3)N2)c1 (stereo unspecified)
CC50 (HepG2): 14 µM | EC50 (Hepatitis B virus): > 10 µM | CC50 (Vero): > 100 µM | CC50 (PBMC): 20 µM | CC50 (CCRF-CEM): 3 µM

CC1=C(Br)C(c2ccc(F)cc2Cl)N=C(c2ccccn2)N1 (stereo unspecified)
CC50 (HepG2): 79 µM | EC50 (Hepatitis B virus): 5.2 µM | CC50 (Vero): 16 µM | CC50 (PBMC): > 100 µM | CC50 (CCRF-CEM): 23 µM
